{
  "source": "paper PMC7167990",
  "about": "“Therapeutic Effects of Atranorin towards the Proliferation of Babesia and Theileria Parasites” (Pathogens, 2020)",
  "key": {"B. bigemina": {"tested_on": "B. bigemina", "assay": "In vitro growth inhibition, Babesia fluorescent (SYBR Green I) assay", "type": "cell-based", "conditions": "4 days culture, mean of triplicate experiments", "method": "(§1) Babesia parasite was incubated and maintained at 37 °C in a humidifying chamber under 5% CO2, 5% O2, and 90% N2 atmosphere using a microaerophilic stationary-phase culture for conducting the in vitro experiment. Briefly, Germany strain Babesia divergens was cultured in cattle RBCs in Roswell Park Memorial Institute 1640 (RPMI 1640; Sigma-Aldrich, St. Louis, MO, USA) medium replenished with 40% cattle serum, while culture medium 199 (M199; Sigma-Aldrich) was utilized for the Argentina strain B. bigemina and Texas strain B. bovis, and T. equi USDA strain cultured in cattle RBCs supplemented with 40% cattle serum and horse RBCs maintained in hypoxanthine (MP Biomedicals, Santa Ana, CA, USA; final concentration 13.6 μg/mL) and 40% horse serum, respectively. GIT medium complemented with 40% horse serum was used as a growth medium for the USDA strain of B. caballi cultured in horse RBCs. To ensure free-bacterial contamination, amphotericin B (0.15 μg/mL) (Sigma-Aldrich), streptomycin (60 U/mL) and penicillin G (60 U/mL) were added to all medium.\n(§2) The Babesia fluorescent assay was carried out on the in vitro culture as previously reported elsewhere to assess the growth of the inhibitory effectiveness of ATR and the combination treatment with DA, CF, and AV. Briefly, in three separate trials, using two-fold dilution, different concentrations of ATR, DA, CF, and AV were prepared in the culture medium and added in 96-well plates in triplicate with 1% parasitemia for T. equi, B. divergens and B. caballi at 5% HCT, while for B. bigemina and B. bovis using 2.5% HCT. The drug combined efficacy was conducted at the same time with the single-treatment assay in accordance with the Chou–Talalay method. […] On day four of culture, an aliquot (100 µL) of lysis buffer mixed with 0.2μL/mL SG1 was added per well; subsequently, it was covered with aluminum foil to prevent exposure to light. After incubation for 6-h at 37 °C, fluorescence readings were acquired on a spectrofluorimeter (Fluoroskan Ascent, Thermo Fisher Scientific, Oceanside, CA, USA) with a 485 nm excitation wavelength and a 518 nm emission wavelength.\n(§3) The IC50 values of ATR, DA, CF, and AV were established from the in vitro growth inhibition by nonlinear regression curve fit on a GraphPad Prism (GraphPad Software Inc., San Diego, CA, USA). […] The significant variations (p < 0.05) among group mean values on parasitemia and one-way ANOVA Tukey’s test in GraphPad Prism version 5.0 was used to analyze hematology profiles in mice infected with B. microti."}, "T. equi": {"tested_on": "T. equi", "assay": "In vitro growth inhibition, Babesia fluorescent (SYBR Green I) assay", "type": "cell-based", "conditions": "4 days culture, mean of triplicate experiments", "method": "as §1, §2, §3"}, "B. bovis": {"tested_on": "B. bovis", "assay": "In vitro growth inhibition, Babesia fluorescent (SYBR Green I) assay", "type": "cell-based", "conditions": "4 days culture, mean of triplicate experiments", "method": "as §1, §2, §3"}, "B. caballi": {"tested_on": "B. caballi", "assay": "In vitro growth inhibition, Babesia fluorescent (SYBR Green I) assay", "type": "cell-based", "conditions": "4 days culture, mean of triplicate experiments", "method": "as §1, §2, §3"}, "B. divergens": {"tested_on": "B. divergens", "assay": "In vitro growth inhibition, Babesia fluorescent (SYBR Green I) assay", "type": "cell-based", "conditions": "4 days culture, mean of triplicate experiments", "method": "as §1, §2, §3"}, "B. microti": {"tested_on": "B. microti", "conditions": "B. microti-infected BALB/c mice, days 4-8 p.i."}, "[1]": {"assay": "Hematology parameters (HGB, HCT, RBCs) in B. microti-infected treated mice", "type": "in vivo, BALB/c mice", "design": "HGB Mean: unit not given beside the values; RBCs Mean: unit not given here", "conditions": "DA 25, AV 20, ATR 25, ATR 12.5+DA 12.5, ATR 12.5+AV 10 mg/kg BW, days 4-8 p.i."}, "HFFs": {"tested_on": "HFFs", "assay": "Cytotoxicity assay (CCK-8 cell viability)", "type": "cell-based, human", "method": "(§4) Cultures of human foreskin fibroblast (HFF; HFF-1 ATCC® SCRC-1041™), Madin–Darby bovine kidney (MDBK; ECACC) and mouse embryonic fibroblast (NIH/3T3; ATCC® CRL-1658™) cells were retrieved from −80 °C stock and cultured continuously at 37 °C under atmosphere 5% CO2 in our laboratory. The NIH/3T3 and HFFs cells were maintained in Dulbecco Modified Eagle’s Medium (DMEM; Gibco, Grand Island, NY, USA), while MDBK cell line grown in Minimum Essential Medium Eagle (MEM; Gibco). Each medium was treated with 0.5% penicillin/streptomycin (Gibco), 10% inactivated fetal bovine serum and 2 mM glutamine. Every 72 to 96 h, the medium was replaced, and once 80% confluence was reached, the cell collection was performed by sub-culture protocol. To confirm the absence of mycoplasma contamination, 4,6-diamidino-2-phenylindole dihydrochloride stain (Sigma-Aldrich) was used.\n(§5) The cell viability test was conducted in a 96-well plate as described elsewhere. Briefly, an aliquot of (100 µL) cells was implanted at a concentration of 5 × 10^4 cells/mL in DMEM or MEM with fetal bovine serum and incubated overnight under atmosphere 5% CO2 at 37 °C for attachment. Using two-fold dilutions, aliquots (10 µL) of drugs were added in triplicate per well to attain final concentrations of 50 to 1000 µM and further incubated for 24 h. The positive control wells containing cells mixed with the medium in 0.4% DMSO, whereas the negative control wells containing culture medium only. After a 24-h incubation, Cell Counting Kits-8 (CCK-8, 10 µL) was added to each well and then plate incubation was conducted for an additional 3 h and a microplate reader was used to assess the absorbance at 450 nm."}, "MDBK cells": {"tested_on": "MDBK cells", "assay": "Cytotoxicity assay (CCK-8 cell viability)", "type": "cell-based, bovine", "method": "as §4, §5"}},
  "data": [
    {"smiles": "CC(=O)NCC(=O)O.CC(=O)NCC(=O)O.N=C(N)c1ccc(N=NNc2ccc(C(=N)N)cc2)cc1", "note": "[DA, diminazene aceturate]", "values": [
      {"measurement": "IC50", "setting": "B. bigemina", "value": "680 ± 90", "unit": "nM"},
      {"measurement": "IC50", "setting": "T. equi", "value": "710 ± 50", "unit": "nM"},
      {"measurement": "IC50", "setting": "B. bovis", "value": "350 ± 60", "unit": "nM"},
      {"measurement": "IC50", "setting": "B. caballi", "value": 20, "unit": "nM"},
      {"measurement": "IC50", "setting": "B. divergens", "value": "430 ± 50", "unit": "nM"},
      {"measurement": "first day on which parasitemia was not detected by microscopy", "setting": "B. microti; DA 25, AV 20, ATR 25, ATR 12.5+DA 12.5, ATR 12.5+AV 10 mg/kg BW", "value": 16, "unit": "day p.i."},
      {"measurement": "peak parasitemia level", "setting": "B. microti; DA at 25 mg/kg, peak on day 10", "value": 7.94, "unit": "%"},
      {"measurement": "HCT Mean", "setting": "[1]; day 0", "value": 46.48, "unit": "%"},
      {"measurement": "HGB Mean", "setting": "[1]; day 0", "value": 15.64},
      {"measurement": "RBCs Mean", "setting": "[1]; day 0", "value": 990.625},
      {"measurement": "HCT Mean", "setting": "[1]; day 4", "value": 46.18, "unit": "%"},
      {"measurement": "HGB Mean", "setting": "[1]; day 4", "value": 13.64},
      {"measurement": "RBCs Mean", "setting": "[1]; day 4", "value": 954.75},
      {"measurement": "HCT Mean", "setting": "[1]; day 8", "value": 46.18, "unit": "%"},
      {"measurement": "HGB Mean", "setting": "[1]; day 8", "value": 14.72},
      {"measurement": "RBCs Mean", "setting": "[1]; day 8", "value": 888.25},
      {"measurement": "HCT Mean", "setting": "[1]; day 12", "value": 44.1, "unit": "%"},
      {"measurement": "HGB Mean", "setting": "[1]; day 12", "value": 13.6},
      {"measurement": "RBCs Mean", "setting": "[1]; day 12", "value": 860},
      {"measurement": "HCT Mean", "setting": "[1]; day 16", "value": 45.52, "unit": "%"},
      {"measurement": "HGB Mean", "setting": "[1]; day 16", "value": 14.46},
      {"measurement": "RBCs Mean", "setting": "[1]; day 16", "value": 870.25},
      {"measurement": "HCT Mean", "setting": "[1]; day 20", "value": 44.14, "unit": "%"},
      {"measurement": "HGB Mean", "setting": "[1]; day 20", "value": 15.02},
      {"measurement": "RBCs Mean", "setting": "[1]; day 20", "value": 880},
      {"measurement": "HCT Mean", "setting": "[1]; day 24", "value": 46, "unit": "%"},
      {"measurement": "HGB Mean", "setting": "[1]; day 24", "value": 15.2},
      {"measurement": "RBCs Mean", "setting": "[1]; day 24", "value": 888},
      {"measurement": "HCT Mean", "setting": "[1]; day 28", "value": 47, "unit": "%"},
      {"measurement": "HGB Mean", "setting": "[1]; day 28", "value": 15.64},
      {"measurement": "RBCs Mean", "setting": "[1]; day 28", "value": 984.75},
      {"measurement": "HCT Mean", "setting": "[1]; day 32", "value": 49, "unit": "%"},
      {"measurement": "HGB Mean", "setting": "[1]; day 32", "value": 15.94},
      {"measurement": "RBCs Mean", "setting": "[1]; day 32", "value": 990.625},
      {"measurement": "HCT Mean", "setting": "[1]; day 36", "value": 49, "unit": "%"},
      {"measurement": "HGB Mean", "setting": "[1]; day 36", "value": 16.64},
      {"measurement": "RBCs Mean", "setting": "[1]; day 36", "value": 997.625},
      {"measurement": "Selective Index HFFs", "setting": "HFFs; EC50 HFFs / IC50 B. bigemina", "value": "˃147.1"},
      {"measurement": "Selective Index HFFs", "setting": "HFFs; EC50 HFFs / IC50 B. bovis", "value": "˃285.7"},
      {"measurement": "Selective Index HFFs", "setting": "HFFs; EC50 HFFs / IC50 B. caballi", "value": "˃5000"},
      {"measurement": "Selective Index HFFs", "setting": "HFFs; EC50 HFFs / IC50 B. divergens", "value": "˃232.5"},
      {"measurement": "Selective Index HFFs", "setting": "HFFs; EC50 HFFs / IC50 T. equi", "value": "˃140.8"},
      {"measurement": "EC50", "setting": "HFFs; HFFs, 24 h, CCK-8", "value": "> 100000", "unit": "nM"},
      {"measurement": "Selective Index MDBK", "setting": "MDBK cells; EC50 MDBK / IC50 B. bigemina", "value": "˃147.1"},
      {"measurement": "Selective Index MDBK", "setting": "MDBK cells; EC50 MDBK / IC50 B. bovis", "value": "˃285.7"},
      {"measurement": "Selective Index MDBK", "setting": "MDBK cells; EC50 MDBK / IC50 B. caballi", "value": "˃5000"},
      {"measurement": "Selective Index MDBK", "setting": "MDBK cells; EC50 MDBK / IC50 B. divergens", "value": "˃232.5"},
      {"measurement": "Selective Index MDBK", "setting": "MDBK cells; EC50 MDBK / IC50 T. equi", "value": "˃140.8"},
      {"measurement": "EC50", "setting": "MDBK cells; MDBK cells, 24 h, CCK-8", "value": "> 100000", "unit": "nM"}
    ]}
  ]
}
